Data set [1] addresses T1, BSA (Bos taurus, UniProt P02769). The data set is described as follows: Cannabis smoke/vapor passed through BSA/water/ethanol solution, cannabinoid profile (Example 1d). As to conditions: 33% ethanol, 48 hours incubation, washed. Format: binding, bovine. The protocol:
(§1) To show which cannabinoid compounds are solubilized in processes using BSA versus organic solvents, cannabis from two different batches was smoked and or vaporized. Vapor was formed using a “volcano” vaporizer at a temperature of 210° C. The smoke/vapor was passed through either a BSA/water/ethanol solution described in example 1b, comprising 33% by volume ethanol or through a pure ethanol (99% ethanol) solution. Solutions were stirred using a magnetic stirrer and were incubated for 48 hours, during which time, most of the ethanol evaporated. One of the batches of cannabis was high in THC, and the other batch of cannabis was high in both THC and CBD.
The BSA/water/ethanol solution was washed after smoke or vapor was combined with it, and the amount of cannabinoids present was analyzed. The results of the comparison of relative concentration of cannabinoids (relative to total cannabinoid content) as expressed in percent (weight/weight), for a strain of cannabis high in THC are shown in the table below.

A short description of data set [2]: Cannabis smoke/vapor passed through pure ethanol, cannabinoid profile (Example 1d). As to conditions: for relative concentration of cannabinoids (relative to total cannabinoid content), Vapor passed through ethanol: vapor at 210° C. Format: physicochemical. The method, then:
as §1

The target of data set [3] is T2, ovalbumin (hen) (Gallus gallus, UniProt P01012).
T2 sequence (P01012 1-386): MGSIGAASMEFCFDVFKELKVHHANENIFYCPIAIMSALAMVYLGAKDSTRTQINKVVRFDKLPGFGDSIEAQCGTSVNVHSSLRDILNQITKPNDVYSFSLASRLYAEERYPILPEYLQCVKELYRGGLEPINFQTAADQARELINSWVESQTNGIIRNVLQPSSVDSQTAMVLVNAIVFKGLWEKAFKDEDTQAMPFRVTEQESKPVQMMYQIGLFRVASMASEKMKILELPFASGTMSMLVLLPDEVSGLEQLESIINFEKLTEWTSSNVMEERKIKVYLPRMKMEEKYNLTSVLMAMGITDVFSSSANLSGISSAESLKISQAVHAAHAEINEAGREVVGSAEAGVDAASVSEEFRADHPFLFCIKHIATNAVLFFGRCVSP
Put plainly: Cannabis vapor streamed through protein solution, cannabinoids adsorbed (Example 1f). Format: binding. As to conditions: vapor of cannabis high in CBD; 1 mg/ml protein, ethanol:water 1:2, 30° C., 24 hours. The protocol:
(§2) The protein solutions were formed using ethanol and water in a 1:2 ratio. The solutions were incubated at 30° C. for 24 hours.

Data set [4] addresses T3, rice recombinant human serum albumin (HSA) (Homo sapiens, UniProt P02768).
T3 construct: host or cells: rice (recombinant expression host)
The description is as above. Format: binding. As to conditions: vapor of cannabis high in CBD; 1 mg/ml protein, ethanol:water 1:2, 30° C., 24 hours. The protocol: as §2

Data set [5] has as its system bovine γ-globulin. Described as above. It is filed as binding. As to conditions: vapor of cannabis high in CBD; 1 mg/ml protein, ethanol:water 1:2, 30° C., 24 hours. The protocol:
as §2

A short description of data set [6]: Cannabinoid content of cannabis extract (Example 2a). Format: physicochemical. As to conditions: methanol/chloroform 9:1 cannabis extract. The protocol:
(§3) Cannabis extract was prepared as follows: In short, cannabis plant matter is dried, ground and homogenized to form ground cannabis. The ground cannabis is extracted with methanol/chloroform (volume/volume ratio of 9:1). Sonication and filtration is then performed. Identity of cannabinoids is determined by HPLC by evaporation, dissolution in an appropriate solvent.
(§4) Drying of the cannabis plant matter occurs under high vacuum at about 37±2° C. for about 24 hours and then ground to form a fine powder. 200 mg of ground powder is combined with 10 ml of methanol/chloroform, and sonicated in an ice bath for 30 minutes at maximum power. The supernatant is then filtered through a 0.2 micron filter.
(§5) A sample of the cannabis extract was analyzed for content of cannabinoids. The cannabis extract was then combined with albumin solution having 20% ethanol at 10 mg/ml (BSA) and incubated for 2 hours at room temperature.

The conditions of data set [7]: 3 g high THC strain; 200 ml ethanol concentrated to about 3 ml.
In data set [8] the target is T1, BSA. The data set is described as follows: Cannabis extract combined with albumin solution, cannabinoids adsorbed to BSA (Example 2a). It is filed as binding, bovine. As to conditions: albumin solution 10 mg/ml (BSA) with 20% ethanol, 2 hours at room temperature. The protocol:
as §3, §4, §5

In data set [9] the target is albumin (BSA) (Bos taurus, UniProt P02769). The data set is described as follows: Ethanolic cannabinoid solution mixed with aqueous albumin, protein-bound cannabinoid quantified (Example 2b). It is filed as binding, bovine. Further details: protein-bound cannabinoid quantified, Vapor: unit not given beside the values. As to conditions: 100 microliters ethanolic solution + 500 microliters 5 mg/ml BSA, 30° C., 12 hours, non-adsorbed cannabinoids separated. The protocol:
100 microliters of ethanolic cannabinoid solution from cannabis vapor and cannabis smoke were each mixed with 500 microliters of aqueous albumin solution that had been prepared at a concentration of 5 mg albumin (BSA)/ml. The aqueous albumin solution combined with the ethanolic cannabinoid solution was incubated at 30° C. for 12 hours in open tubes. After 12 hours, the tubes were mixed and centrifuged, and non-adsorbed cannabinoids were separated from the solution. Concentrated protein-bound cannabinoid was dried and quantified as described below.

For data set [10], the target named is T4, bovine serum albumin (BSA) (Bos taurus, UniProt P02769).
T4 construct: purchased Millipore, USA
T4 sequence (P02769 25-607): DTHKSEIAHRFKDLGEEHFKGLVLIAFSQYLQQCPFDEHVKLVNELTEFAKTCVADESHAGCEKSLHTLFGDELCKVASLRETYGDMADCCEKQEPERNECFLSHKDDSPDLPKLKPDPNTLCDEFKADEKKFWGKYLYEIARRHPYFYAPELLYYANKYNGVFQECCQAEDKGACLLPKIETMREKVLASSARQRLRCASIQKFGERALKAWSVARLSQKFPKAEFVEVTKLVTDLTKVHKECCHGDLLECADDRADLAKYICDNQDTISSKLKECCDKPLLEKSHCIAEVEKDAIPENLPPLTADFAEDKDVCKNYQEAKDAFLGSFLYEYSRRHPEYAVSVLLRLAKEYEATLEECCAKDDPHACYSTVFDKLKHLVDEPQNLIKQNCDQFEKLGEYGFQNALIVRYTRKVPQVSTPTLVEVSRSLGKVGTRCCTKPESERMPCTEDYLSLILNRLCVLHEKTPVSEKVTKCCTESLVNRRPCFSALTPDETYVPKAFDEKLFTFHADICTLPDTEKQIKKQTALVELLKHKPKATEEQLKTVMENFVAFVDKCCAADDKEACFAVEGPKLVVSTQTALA
Put plainly: Cannabis smoke bubbled through aqueous BSA solution, cannabinoids determined by HPLC (Example 1a). Format: binding. As to conditions: BSA in Hartmann's solution; FIG. 2A. The method, then:
Protein-bound cannabinoid was formed according to the following method. An aqueous albumin solution was prepared by adding 20 (mg)) of bovine serum albumin (BSA, from Millipore, USA) to 10 milliliters (ml) ml Hartmann's solution (B. Braun Melsungen AG, Germany). BSA was completely dissolved using a shaker (Heidolph POLYMAX 1040) at 50 revolutions per minute.
A cannabis-filled cigarette was formed using a cigarette paper containing 0.8 gr ground cannabis (provided by “Seach” Israel), from flowers and budding leaves. A Pasteur pipette was cut longitudinally at its wide end, and the cigarette was lodged in to the cut end. The narrow end of the pipette was attached to a syringe. The cigarette was lit in a fume hood, and cigarette smoke was collected in the syringe by pulling the syringe plunger. The smoke was then slowly released into the BSA solution by depressing the plunger. Approximately 350 ml of smoke-containing air was gently bubbled through the BSA solution.
As a control, a solution of 10 ml of Hartmann's solution was prepared without the addition of BSA and a similar procedure of cannabis smoke formation and bubbling was performed.
Samples having a volume of 3 ml of the BSA solution and the control solution were each inserted in to HPLC glass vials and the open vials were inserted into a vacuum oven for 24 hours at 37° Celsius.
The solid phase after the evaporation was crushed in to a fine powder using mortar and pestle. The powder was extracted using Methanol chloroform 9:1 extract solution, sonicated for 30 minutes, and was then filtered and added in to an HPLC testing tube.
HPLC was performed using an HP1050 AGILENT, DAD detector, XBridge C18 3.5 μm 4.6×150 mm column, and according to the following parameters: […]

The mark [11] stands for this setting: strain of cannabis high in CBD and THC.

Molecules are shown by their SMILES.

T1 sequence (P02769 25-607): as above
Chain of albumin (BSA) (P02769 25-607): as above
T3 sequence (P02768 25-609): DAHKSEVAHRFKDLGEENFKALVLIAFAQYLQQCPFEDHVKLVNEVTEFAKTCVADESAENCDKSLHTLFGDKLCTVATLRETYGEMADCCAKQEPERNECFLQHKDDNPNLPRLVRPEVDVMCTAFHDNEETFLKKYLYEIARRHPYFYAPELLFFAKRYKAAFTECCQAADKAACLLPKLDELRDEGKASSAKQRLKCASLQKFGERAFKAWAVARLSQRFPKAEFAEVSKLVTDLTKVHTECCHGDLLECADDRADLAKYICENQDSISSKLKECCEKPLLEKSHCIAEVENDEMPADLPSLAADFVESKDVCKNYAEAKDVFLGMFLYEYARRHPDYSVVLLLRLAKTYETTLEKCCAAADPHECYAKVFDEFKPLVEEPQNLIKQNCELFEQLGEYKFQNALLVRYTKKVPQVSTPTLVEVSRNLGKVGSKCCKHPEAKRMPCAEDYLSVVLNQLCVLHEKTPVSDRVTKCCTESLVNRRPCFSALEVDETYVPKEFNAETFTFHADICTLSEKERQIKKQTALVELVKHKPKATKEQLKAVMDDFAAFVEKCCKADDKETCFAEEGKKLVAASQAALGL

Take `C=C(C)[C@@H]1CCC(C)=C[C@H]1c1c(O)cc(CCCCC)c(C(=O)O)c1O` [CBDA, cannabidiolic acid]: in data set [1] (setting [11]), the “relative concentration of cannabinoids (relative to total cannabinoid content), Smoke passed through BSA/water/ethanol” value is given as 39.8 percent (weight/weight) and the “relative concentration of cannabinoids (relative to total cannabinoid content), Vapor passed through BSA/water/ethanol” value was 23.6 percent (weight/weight). Besides, in data set [1] (strain of cannabis high in THC), the “relative concentration of cannabinoids (relative to total cannabinoid content), Smoke passed through BSA/water/ethanol” value is listed as 0.0 percent (weight/weight). In addition, in data set [2] (setting [11]), the “relative concentration of cannabinoids (relative to total cannabinoid content), Smoke passed through ethanol” value is 2.3 percent (weight/weight) and the “relative concentration of cannabinoids (relative to total cannabinoid content), Vapor passed through ethanol” value is on record as 1.6 percent (weight/weight). In data set [2] (strain of cannabis high in THC), the “relative concentration of cannabinoids (relative to total cannabinoid content), Smoke passed through ethanol” value is listed as 0.9 percent (weight/weight) and the “relative concentration of cannabinoids (relative to total cannabinoid content), Vapor passed through ethanol” value is 0.4 percent (weight/weight). Besides, in [3], the “percentage of each cannabinoid relative to total cannabinoids adsorbed to protein, Ovalbumin” value stood at 2.4 percentage. In addition, the “percentage of each cannabinoid relative to total cannabinoids adsorbed to protein, Rice recombinant HSA” value in data set [4] is reported as 46 percentage. Further, the “percentage of each cannabinoid relative to total cannabinoids adsorbed to protein, Bovine γ-globulin” value in [5] came out at 0 percentage. Moreover, the “percentage of each cannabinoid relative to total cannabinoids, Extract” value in [6] is reported as 1 percentage. In addition, in data set [7], the “amount of cannabinoids dissolved in ethanol, Smoke” value (“amount … Smoke” below) was 0 micrograms/ml and the “amount of cannabinoids dissolved in ethanol, Vapor” value (from here on “amount … Vapor”) worked out at 3.1218 micrograms/ml. Also, in data set [8], the “percentage of each cannabinoid relative to total cannabinoids adsorbed to protein, Adsorbed to BSA after extract combined with BSA solution” value is reported as 0 percentage. Also, in data set [9], the “protein-bound cannabinoid quantified, Smoke” value is listed as 0 and the “protein-bound cannabinoid quantified, Vapor” value came to 0.

For the compound `CCCCCc1cc(O)c(C/C=C(\C)CCC=C(C)C)c(O)c1` [CBG, cannabigerol], in [1] (setting [11]), the “relative concentration of cannabinoids (relative to total cannabinoid content), Smoke passed through BSA/water/ethanol” value is 0.0 percent (weight/weight) and the “relative concentration of cannabinoids (relative to total cannabinoid content), Vapor passed through BSA/water/ethanol” value was 0.0 percent (weight/weight). The “relative concentration of cannabinoids (relative to total cannabinoid content), Smoke passed through BSA/water/ethanol” value in data set [1] (strain of cannabis high in THC) is given as 21.0 percent (weight/weight). Also, in data set [2] (setting [11]), the “relative concentration of cannabinoids (relative to total cannabinoid content), Smoke passed through ethanol” value is 4.2 percent (weight/weight) and the “relative concentration of cannabinoids (relative to total cannabinoid content), Vapor passed through ethanol” value is recorded as 1.5 percent (weight/weight). In [2] (strain of cannabis high in THC), the “relative concentration of cannabinoids (relative to total cannabinoid content), Smoke passed through ethanol” value is 4.9 percent (weight/weight) and the “relative concentration of cannabinoids (relative to total cannabinoid content), Vapor passed through ethanol” value is listed as 1.2 percent (weight/weight). In addition, the “percentage of each cannabinoid relative to total cannabinoids adsorbed to protein, Ovalbumin” value in [3] amounted to 0 percentage. Further, the “percentage of each cannabinoid relative to total cannabinoids adsorbed to protein, Rice recombinant HSA” value in [4] came to 0 percentage. Further, the “percentage of each cannabinoid relative to total cannabinoids adsorbed to protein, Bovine γ-globulin” value in data set [5] amounted to 0 percentage. Moreover, in [6], the “percentage of each cannabinoid relative to total cannabinoids, Extract” value is listed as 3 percentage. Also, in data set [7], the “amount … Smoke” value is listed as 292.063 micrograms/ml and the “amount … Vapor” value is given as 183.6224 micrograms/ml. Besides, the “percentage of each cannabinoid relative to total cannabinoids adsorbed to protein, Adsorbed to BSA after extract combined with BSA solution” value in data set [8] was determined as 1 percentage. Moreover, in data set [9], the “protein-bound cannabinoid quantified, Smoke” value came to 5.9 and the “protein-bound cannabinoid quantified, Vapor” value stood at 11.685.

For the compound `CCCCCc1cc(O)c2c(c1)OC(C)(CCC=C(C)C)C=C2` (centres unmarked) [CBC, cannabichromene], the “relative concentration of cannabinoids (relative to total cannabinoid content), Smoke passed through BSA/water/ethanol” value in data set [1] (setting [11]) was 0.0 percent (weight/weight). Besides, the “relative concentration of cannabinoids (relative to total cannabinoid content), Smoke passed through BSA/water/ethanol” value in data set [1] (strain of cannabis high in THC) was 0.0 percent (weight/weight). In [2] (setting [11]), the “relative concentration of cannabinoids (relative to total cannabinoid content), Smoke passed through ethanol” value is 3.1 percent (weight/weight) and the “relative concentration of cannabinoids (relative to total cannabinoid content), Vapor passed through ethanol” value is 3.8 percent (weight/weight). Also, in data set [2] (strain of cannabis high in THC), the “relative concentration of cannabinoids (relative to total cannabinoid content), Smoke passed through ethanol” value was 1.3 percent (weight/weight) and the “relative concentration of cannabinoids (relative to total cannabinoid content), Vapor passed through ethanol” value is 0.0 percent (weight/weight). Further, the “percentage of each cannabinoid relative to total cannabinoids adsorbed to protein, Rice recombinant HSA” value in data set [4] was 0 percentage. For the same compound, in data set [5], the “percentage of each cannabinoid relative to total cannabinoids adsorbed to protein, Bovine γ-globulin” value amounted to 0 percentage. Besides, the “percentage of each cannabinoid relative to total cannabinoids, Extract” value in data set [6] is recorded as 1 percentage. Further, in data set [7], the “amount … Smoke” value worked out at 90.873 micrograms/ml and the “amount … Vapor” value was 54.7468 micrograms/ml. Besides, in data set [8], the “percentage of each cannabinoid relative to total cannabinoids adsorbed to protein, Adsorbed to BSA after extract combined with BSA solution” value is 3 percentage. In addition, in data set [9], the “protein-bound cannabinoid quantified, Smoke” value was 2.13 and the “protein-bound cannabinoid quantified, Vapor” value is given as 1.845. For the same compound, the “active cannabinoids found by HPLC in BSA aqueous solution after cannabis smoke was introduced” value in [10] is on record as “dissolved in the solution”.

Values taken from US12161723B2, “Water-based cannabinoid and opioid compositions” (DAY THREE LABS MAN[…]., priority 2014, dated 2024).
